Reference: patent US20230365563A1, “QUINAZOLINE COMPOUND AND APPLICATION THEREOF” (SHANGHAI PHARMACEUTICALS HOLDING CO., LTD., priority 2020, published 2023)
Structures can show the parent of a compound that is named as a salt.

How the values were obtained:
KRAS_WT and SOS1 = target: T1, KRAS_WT and SOS1 (Homo sapiens, UniProt P01116); assay: Inhibition of KRAS_WT/SOS1 binding (Cisbio binding kit, 665/615 ratio), Effect Embodiment C; conditions: read-out: GTP-KRAS-WT:SOS1 IC50
T1 construct: purchased
Description: The inhibitory ability of small molecule compounds on the binding activity of KRAS_WT and SOS1 was examined by a drug screening system based on the combination of KRAS_WT and SOS1.
(§1) Similarly, the first dilution point of the compound to be tested was its storage solution, and the solution was 3-fold diluted, with 11+0 points of dilution. Echo was used to transfer 0.2 μL gradient diluted solution of the compounds into a 384-well plate, with 2 duplicated wells for each compound, and the final concentration of DMSO was 1%. The solution was centrifuged for 1 min at 1000 rpm/min.
(§2) IC50 of the compounds was fitted by Graphpad Prism 8 nonlinear regression equation: […]
(§3) The IC50 (half inhibitory concentration) of the compound was obtained by using the following nonlinear fitting formula: […]

KRAS-G12D and SOS1 = target: T2, KRAS-G12D and SOS1 (Homo sapiens, UniProt P01116, G12D); assay: Inhibition of KRAS-G12D/SOS1 binding (Cisbio binding kit, 665/615 ratio), Effect Embodiment A; conditions: read-out: GTP-KRAS-G12D:SOS1 IC50
T2 construct: purchased
How it was run: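 Test compounds were serially diluted 3-fold from the storage solution over 11 points and dispensed in duplicate wells at 1% final DMSO.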

KRAS_G12D and cRAF = target: T3, KRAS_G12D and cRAF (Homo sapiens, UniProt P01116, G12D); assay: Inhibition of KRAS_G12D/cRAF binding (Cisbio binding kit, 665/615 ratio), Effect Embodiment B; conditions: read-out: GTP-KRAS-G12D:CRAF IC50
T3 construct: purchased
Description: as §1, §2, §3

T3 sequence (P01116 1-188 isoform P01116-2 G12D): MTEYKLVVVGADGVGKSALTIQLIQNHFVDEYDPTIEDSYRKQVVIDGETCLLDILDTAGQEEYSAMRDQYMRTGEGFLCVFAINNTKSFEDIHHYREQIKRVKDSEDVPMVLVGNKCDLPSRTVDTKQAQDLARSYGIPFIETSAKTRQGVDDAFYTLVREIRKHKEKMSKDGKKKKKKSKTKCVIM
T2 sequence (P01116 1-188 isoform P01116-2 G12D): as above
T1 sequence (P01116 1-188 isoform P01116-2): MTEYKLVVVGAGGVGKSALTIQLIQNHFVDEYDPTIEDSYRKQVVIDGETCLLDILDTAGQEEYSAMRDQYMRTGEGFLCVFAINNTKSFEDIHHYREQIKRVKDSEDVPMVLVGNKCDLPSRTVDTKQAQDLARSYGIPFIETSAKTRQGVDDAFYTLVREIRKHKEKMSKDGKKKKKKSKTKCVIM

Compound	IC50 (KRAS_WT and SOS1) [nM]	IC50 (KRAS-G12D and SOS1) [nM]	IC50 (KRAS_G12D and cRAF) [nM]
Oc1cc(-c2c(Cl)cc3c(N4CC5CCC(C4)N5)nc(N4CCNCC4)nc3c2F)c2ccccc2c1 (single isomer, unassigned) [Compound 57b, 4-((R or S)-4-((1R,5S)-3,8-diazabicyclo[3.2.1]octan-3-yl)-6-chloro-8-fluoro-2-(piperazin-1-yl)quinazolin-7-yl)naphthalen-2-ol]	44500	419	7910
Oc1cc(-c2c(Cl)cc3c(N4CC5CCC(C4)N5)nc(OCC45CCCN4CCC5)nc3c2F)c2ccccc2c1 (single isomer, unassigned) [Compound 58a, 4-((S or R)-4-((1R,5S)-3,8-diazabicyclo[3.2.1]octan-3-yl)-6-chloro-8-fluoro-2-((tetrahydro-1H-pyrrolin-7a(5H)-yl)methoxy)quinazolin-7-yl)naphthalen-2-o1]	47.2	20.4	12.6
Oc1cc(-c2c(Cl)cc3c(N4CC5CCC(C4)N5)nc(OCCCN4CCC4)nc3c2F)c2ccccc2c1 (single isomer, unassigned) [Compound 59a, 4-((S or R)-2-(3-(azetidin-1-yl)propoxy)-4-((1R,5S)-3,8-diazabicyclo[3.2.1]octan-3-yl)-6-chloro-8-fluoroquinazolin-7-yl)naphthalen-2-ol]	2080	45.4	182
CN(C)CCCCOc1nc(N2CC3CCC(C2)N3)c2cc(Cl)c(-c3cc(O)cc4ccccc34)c(F)c2n1 (single isomer, unassigned) [Compound 60a, 4-((S or R)-4-((1R,5S)-3,8-diazabicyclo[3.2.1]octan-3-yl)-6-chloro-2-(4-(dimethylamino)butoxy)-8-fluoroquinazolin-7-yl)naphthalen-2-ol]	5900	63	357
CN1CCC2(C1)CN(c1nc(N3CC4CCC(C3)N4)c3cc(Cl)c(-c4cc(O)cc5ccccc45)c(F)c3n1)C2 (single isomer, unassigned) [Compound 61a, 4-((S or R)-4-((1R,5S)-3,8-diazabicyclo[3.2.1]octan-3-yl)-6-chloro-8-fluoro-2-(6-methyl-2,6-diazaspiro[3.4]octan-2-yl)quinazolin-7-yl)naphthalen-2-ol]	68300	230	1600
Oc1cc(-c2c(Cl)cc3c(N4CC5CCC(C4)N5)nc(OCCCN4CCCC4)nc3c2F)c2ccccc2c1 (single isomer, unassigned) [Compound 63a, 4-((S or R)-4-((1R,5S)-3,8-diazabicyclo[3.2.1]octan-3-yl)-6-chloro-8-fluoro-2-(3-(pyrrolidin-1-yl)propoxy)quinazolin-7-yl)naphthalen-2-ol]	1580	17.8	134
CN(C)C1CN(c2nc(N3CC4CCC(C3)N4)c3cc(Cl)c(-c4cc(O)cc5cccc(F)c45)c(F)c3n2)C1 (single isomer, unassigned) [Compound 64b, 4-((R or S)-4-((1R,5S)-3,8-diazabicyclo[3.2.1]octan-3-yl)-6-chloro-2-(3-(dimethylamino)azetidin-1-yl)-8-fluoroquinazolin-7-yl)-5-fluoronaphthalen-2-ol]	1250	44.6	283
CN(C)C1CN(c2nc(N3CC4CCC(C3)N4)c3cc(Cl)c(-c4cc(O)cc5cccc(Cl)c45)c(F)c3n2)C1 (single isomer, unassigned) [Compound 65b, 4-((R or S)-4-((1R,5S)-3,8-diazabicyclo[3.2.1]octan-3-yl)-6-chloro-2-(3-(dimethylamino)azetidin-1-yl)-8-fluoroquinazolin-7-yl)-5-chloronaphthalen-2-ol]	270	84.3	434
Oc1cc(-c2c(Cl)cc3c(N4CC5CCC(C4)N5)nc(OCCCN4CCCCC4)nc3c2F)c2ccccc2c1 (single isomer, unassigned) [Compound 66a, 4-((S or R)-4-((1R,5S)-3,8-diazabicyclo[3.2.1]octan-3-yl)-6-chloro-8-fluoro-2-(3-(piperidin-1-yl)propoxy)quinazolin-7-yl)naphthalen-2-ol]	1020	38.3	139
CN(C)CCCCCCOc1nc(N2C[C@H]3CC[C@@H](C2)N3)c2cc(Cl)c(-c3cc(O)cc4ccccc34)c(F)c2n1 (single isomer, unassigned) [Compound 68, (S or R)-4-(4-((1R,5S)-3,8-diazabicyclo[3.2.1]octan-3-yl)-6-chloro-2-((6-(dimethylamino)hexyl)oxy)-8-fluoroquinazolin-7-yl)naphthalen-2-ol dihydrochloride]	16700	214	646
CN(C)[C@H]1C[C@@H](Oc2nc(N3CC4CCC(C3)N4)c3cc(Cl)c(-c4cc(O)cc5ccccc45)c(F)c3n2)C1 (single isomer, unassigned) [Compound 69a, 4-((S or R)-4-((1R,5S)-3,8-diazabicyclo[3.2.1]octan-3-yl)-6-chloro-2-((1S,3R)-3-(dimethylamino)cyclobutoxy)-8-fluoroquinazolin-7-yl)naphthalen-2-ol dihydrochloride]	> 100000	225	1850
CN(C)[C@H]1C[C@H](Oc2nc(N3CC4CCC(C3)N4)c3cc(Cl)c(-c4cc(O)cc5ccccc45)c(F)c3n2)C1 (single isomer, unassigned) [Compound 69b, 4-((S or R)-4-((1R,5S)-3,8-diazabicyclo[3.2.1]octan-3-yl)-6-chloro-2-((1R,3S)-3-(dimethylamino)cyclobutoxy)-8-fluoroquinazolin-7-yl)naphthalen-2-ol dihydrochloride]	> 100000	157	1960
CN(C)C1CCC(Oc2nc(N3CC4CCC(C3)N4)c3cc(Cl)c(-c4cc(O)cc5ccccc45)c(F)c3n2)C1 (single isomer, unassigned) [Compound 70a, 4-((S or R)-4-((1R,5S)-3,8-diazabicyclo[3.2.1]octan-3-yl)-6-chloro-2-((1S,3R or 1R,3S)-3-(dimethylamino)cyclopentyl)oxy)-8-fluoroquinazolin-7-yl)naphthalen-2-ol dihydrochloride]	> 100000	93.9	592
CN(C)C1CCC(Oc2nc(N3CC4CCC(C3)N4)c3cc(Cl)c(-c4cc(O)cc5ccccc45)c(F)c3n2)C1 (single isomer, unassigned) [Compound 70b, 4-((S or R)-4-((1R,5S)-3,8-diazabicyclo[3.2.1]octan-3-yl)-6-chloro-2-((1R,3S or 1S,3R)-3-(dimethylamino)cyclopentyl)oxy)-8-fluoroquinazolin-7-yl)naphthalen-2-ol dihydrochloride]	> 100000	66	515
CN(C)C1CCC(Oc2nc(N3CC4CCC(C3)N4)c3cc(Cl)c(-c4cc(O)cc5ccccc45)c(F)c3n2)C1 (single isomer, unassigned) [Compound 70c, 4-((S or R)-4-((1R,5S)-3,8-diazabicyclo[3.2.1]octan-3-yl)-6-chloro-2-((1S,3S or 1R,3R)-3-(dimethylamino)cyclopentyl)oxy)-8-fluoroquinazolin-7-yl)naphthalen-2-ol dihydrochloride]	38300	74.1	417
CN(C)C1CCC(Oc2nc(N3CC4CCC(C3)N4)c3cc(Cl)c(-c4cc(O)cc5ccccc45)c(F)c3n2)C1 (single isomer, unassigned) [Compound 70d, 4-((S or R)-4-((1R,5S)-3,8-diazabicyclo[3.2.1]octan-3-yl)-6-chloro-2-((1R,3R or 1S,3S)-3-(dimethylamino)cyclopentyl)oxy)-8-fluoroquinazolin-7-yl)naphthalen-2-ol dihydrochloride]	60500	93.9	356
CN1CCC[C@H]1COc1nc(N2CC3CCC(C2)N3)c2cc(Cl)c(-c3cc(O)c(F)c4ccccc34)c(F)c2n1 (single isomer, unassigned) [Compound 89a, (S or R)-4-(4-((1R,5S)-3,8-diazabicyclo[3.2.1]octan-3-yl)-6-chloro-8-fluoro-2-(S)-1-methylpyrrolidin-2-yl)methoxy)quinazolin-7-yl)-1-fluoronaphthalen-2-ol hydrochloride]	2190	47.7	110
CN1CC(COc2nc(N3CC4CCC(C3)N4)c3cc(Cl)c(-c4cc(O)cc5ccccc45)c(F)c3n2)C1 (single isomer, unassigned) [Compound 91, 4-((S or R)-4-((1R,5S)-3,8-diazabicyclo[3.2.1]octan-3-yl)-6-chloro-8-fluoro-2-((1-methylazetidin-3-yl)methoxy)quinazolin-7-yl)naphthalen-2-ol tritrifluoroacetate]	1100	15.1	78.2
Oc1cc(-c2c(Cl)cc3c(N4CC5CCC(C4)N5)nc(OCCCN4CCNCC4)nc3c2F)c2ccccc2c1 (single isomer, unassigned) [Compound 92, 4-((S or R)-4-((1R,5S)-3,8-diazabicyclo[3.2.1]octan-3-yl)-6-chloro-8-fluoro-2-(3-(piperazin-1-yl)propoxy)quinazolin-7-yl)naphthalen-2-ol dihydrochloride]	4710	37.4	139
